Experiments:
Test in all cases: fitness (endpoint OD595 vs no drug) (fraction); higher = more growth
[1] = tested on: S. aureus Newman
Summary of the method: (§1)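 Fitness compares growth at the stationary-phase transition with the robust mean of no-drug control wells, as a ratio of optical densities. The ratio is capped at 1. Wells of 384-well plates held 30 µl, or 55 µl for S. pneumoniae, inoculated at OD595 0.01. Readings at OD595 every 30 min for 14 h at 37 °C were corrected against the first reading.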

[2] = tested on: S. pneumoniae D39V
Summary of the method: as §1

[3] = tested on: S. aureus DSM 20231
Summary of the method: as §1
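Also: OD595 on entry to stationary phase over no-drug wells; at most 1.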

CC1(C)S[C@@H]2[C@H](NC(=O)[C@H](N)c3ccc(O)cc3)C(=O)N2[C@H]1C(=O)O [Amoxicillin] + CO[C@@]12[C@H](COC(N)=O)C3=C(C(=O)C(C)=C(N)C3=O)N1C[C@@H]1N[C@@H]12 [Mitomycin C]
Conditions | fitness
[1], first compound 0.0625 µg/mL, partner 0.0156 µg/mL | 0.67
[1], first compound 0.0625 µg/mL, partner 0.0312 µg/mL | 0.646
[1], first compound 0.0625 µg/mL, partner 0.0625 µg/mL | 0.502
[1], first compound 0.125 µg/mL, partner 0.0156 µg/mL | 0.714
[1], first compound 0.125 µg/mL, partner 0.0312 µg/mL | 0.649
[1], first compound 0.125 µg/mL, partner 0.0625 µg/mL | 0.465
[1], first compound 0.25 µg/mL, partner 0.0312 µg/mL | 0.627
[2], first compound 0.0008 µg/mL, partner 0.001075 µg/mL | ≥ 1
[2], first compound 0.0008 µg/mL, partner 0.00215 µg/mL | 0.895
[2], first compound 0.0008 µg/mL, partner 0.0043 µg/mL | 0.799
[2], first compound 0.0015 µg/mL, partner 0.001075 µg/mL | 0.994
[2], first compound 0.0015 µg/mL, partner 0.002 µg/mL | 0.778
[2], first compound 0.0015 µg/mL, partner 0.00215 µg/mL | 0.876
[2], first compound 0.0015 µg/mL, partner 0.004 µg/mL | 0.836
[2], first compound 0.0015 µg/mL, partner 0.0043 µg/mL | 0.816
[2], first compound 0.0015 µg/mL, partner 0.008 µg/mL | 0.674
[2], first compound 0.003 µg/mL, partner 0.001075 µg/mL | 0.938
[2], first compound 0.003 µg/mL, partner 0.002 µg/mL | 0.702
[2], first compound 0.003 µg/mL, partner 0.00215 µg/mL | 0.832
[2], first compound 0.003 µg/mL, partner 0.004 µg/mL | 0.728
[2], first compound 0.003 µg/mL, partner 0.0043 µg/mL | 0.761
[2], first compound 0.003 µg/mL, partner 0.008 µg/mL | 0.617
[3], first compound 0.0625 µg/mL, partner 0.0156 µg/mL | 0.522
[3], first compound 0.0625 µg/mL, partner 0.0312 µg/mL | 0.467
[3], first compound 0.0625 µg/mL, partner 0.0625 µg/mL | 0.31
[3], first compound 0.125 µg/mL, partner 0.0156 µg/mL | 0.359
[3], first compound 0.125 µg/mL, partner 0.0312 µg/mL | 0.226
[3], first compound 0.125 µg/mL, partner 0.0625 µg/mL | 0.0925
[3], first compound 0.25 µg/mL, partner 0.0156 µg/mL | 0.0215
[3], first compound 0.25 µg/mL, partner 0.0312 µg/mL | 0.0317
[3], first compound 0.25 µg/mL, partner 0.0625 µg/mL | 0.0251
[3], first compound 0.5 µg/mL, partner 0.0156 µg/mL | 0.0035
[3], first compound 0.5 µg/mL, partner 0.0312 µg/mL | 0.0009
[3], first compound 0.5 µg/mL, partner 0.0625 µg/mL | 0.0008

fitness, [2], one replicate
Conditions | partner 0.002 µg/mL | partner 0.004 µg/mL | partner 0.008 µg/mL
first compound 0.0008 µg/mL | 0.785 | 0.79 | 0.739
first compound 0.006 µg/mL | 0.269 | 0.349 | 0.17

Source: the supplement of paper PMC10627819
